Source: patent US7071197B2, “N,N-disubstituted diazocycloalkanes” (Recordati S.A., priority 2002, dated 2006)
Where two headings read alike, the source gives them in different places.

What was measured:
[1] = target: T1, human 5HT1A-serotonergic receptor (Homo sapiens, UniProt P08908); assay: [3H]8-OH-DPAT radioligand binding to human recombinant 5-HT1A receptors; details: for Ki: [3H]8-OH-DPAT, HeLa cell membranes, read-out: Affinity: Ki
T1 construct: expressed in transfected cells
T1 sequence (P08908 1-422): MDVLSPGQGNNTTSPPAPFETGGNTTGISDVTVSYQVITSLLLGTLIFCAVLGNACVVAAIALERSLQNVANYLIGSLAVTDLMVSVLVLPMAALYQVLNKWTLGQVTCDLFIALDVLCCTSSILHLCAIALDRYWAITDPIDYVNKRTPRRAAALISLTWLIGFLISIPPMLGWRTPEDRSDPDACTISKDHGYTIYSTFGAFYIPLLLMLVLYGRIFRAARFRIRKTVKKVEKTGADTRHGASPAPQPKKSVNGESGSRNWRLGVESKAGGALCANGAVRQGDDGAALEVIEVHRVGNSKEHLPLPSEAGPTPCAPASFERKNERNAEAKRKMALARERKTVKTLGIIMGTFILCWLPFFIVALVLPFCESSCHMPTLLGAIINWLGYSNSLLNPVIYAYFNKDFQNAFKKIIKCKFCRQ
Procedure: (§1) A genomic clone coding for the human 5HT1A-serotonergic receptor was stably transfected in a human cell line (HeLa). HeLa cells were grown as monolayers in Dulbecco's modified Eagle medium (DMEM), containing 10% fetal bovine serum, gentamycin (0.1 mg/ml) and 5% carbon dioxide, at 37° C. The cells were detached from the growth flask at 95% confluence by a cell scraper and were lysed in cold 5 mM Tris and 5 mM EDTA buffer (pH 7.4). The homogenates were centrifuged at 40000×g×20 minutes and the pellets were resuspended in a small volume of cold 5 mM Tris and 5 mM EDTA buffer (pH 7.4) and immediately frozen and stored at −70° C. until use.
[^3H]8-OH-DPAT binding: on the day of experiment, the cell membranes were resuspended in incubation buffer: 50 mM Tris HCl (pH 7.4), 2.5 mM MgCl2, […] (Fargin et al., Nature 335, 358–360, 1988). The membranes were incubated in a final volume of 1 ml for 30 minutes at 30° C. with 1 nM [^3H]8-OH-DPAT, in the absence or presence of the test compounds. Non-specific binding was determined in the presence of 10 μM 5-HT. Incubation was stopped by addition of cold Tris-HCl buffer and rapid filtration through a 0.2%-polyethyleneimine-pretreated Whatman-GF/B or Schleicher-&-Schuell-GF52 filter.
The affinity of the tested compounds was evaluated as inhibition of specific binding of the radioligand to 5-HT1A receptors (IC50) by using the non-linear curve-fitting program (De Lean et al., Am. J. Physiol. 235, E97-E102, 1978). The IC50 value was converted to an affinity constant (Ki) by the equation of Cheng et al., Biochem. Pharmacol. 22, 3099–3108 (1973).

[2] = target: T2, human cloned 5-HT1A receptors (Homo sapiens, UniProt P08908); assay: [35S]GTPγS binding, membranes of HeLa cells transfected with human cloned 5-HT1A receptors; format: biochemical; details: 5-HT maximal stimulation taken as 100%
T2 construct: expressed in transfected cells
T2 sequence (P08908 1-422): T1 sequence (P08908 1-422)
Procedure: as §1
[^35S]GTPγS binding: on the experimental day, cell membranes from HeLa cells transfected with human cloned 5-HT1A receptors were resuspended in buffer pH 7.4 containing 20 mM HEPES, 3 mM MgCl2 and 120 mM NaCl (Stanton, J. A.; Beer, M. S. Eur. J. Pharmacol. 320, 267–275, 1997). The membranes were incubated with 10 μM GDP and decreasing concentrations of test drugs (from 100 μM to 0.1 nM) or decreasing concentrations of 5-HT (from 100 μM to 0.1 nM, reference curve) for 20 min at 30° C. in a final volume of about 0.25 ml. [^35S]GTPγS ([…] in 10 μl) was added to samples and incubated for a further 30 min at 30° C. Non-specific binding was determined in the presence of 10 μM GTPγS. The incubation was stopped by addition of ice-cold HEPES buffer and rapid filtration on Unifilter GF/C filters, using a Filtermate cell harvester (Packard). The filters were washed four times with total 1.2 ml of same buffer. Radioactivity was counted by liquid scintillation spectrometry with efficiency >90% (TopCount Packard). Stimulation of [^35S]GTPγS binding induced by the compounds tested was espressed as % increase in binding above basal value, being the maximal stimulation observed with 5-HT taken as 100%. The concentration-response curve of the agonistic activity was analyzed by non linear fitting program (De Lean et al., Am. J. Physiol. 235, E97-E102, 1978).
A stimulation of [^35S]GTPγS binding represented the functional correlate of the binding of an agonist compound at the 5-HT1A receptors. Stimulation induced by the endogenous ligand 5-HT was considered the maximal stimulation attainable.

[3] = tested on: rhythmic bladder-voiding contractions in anaesthetised rats; assay: Rhythmic bladder-voiding contractions induced by bladder filling in anaesthetised rats; format: in vivo, rat; details: for ED10 min (extrapolated dose inducing 10 minutes of disappearance of the contractions) / ED50: intravenous administration, anaesthetised rats; for ED50: Rattus norvegicus
Procedure: Female Sprague-Dawley rats weighing 225–275 g (Crl: CD® (SD) IGS BR, Charles River Italia) were used. The animals were housed with free access to food and water and maintained on a forced 12-hour alternating light-dark cycle at 22–24° C. for at least one week, except during the experiment. The activity on rhythmic bladder voiding contractions was evaluated according to the method of Dray (Dray J., Pharmacol. Methods, 13:157, 1985), with some modifications as in Guarneri (Guarneri, Pharmacol. Res. 27:173, 1993). Briefly, the rats were anaesthetised by subcutaneous injection of 1.25 g/kg (5 ml/kg) urethane, after which the urinary bladder was catheterised via the urethra using PE 50 polyethylene tubing filled with physiological saline. The catheter was tied in place with a ligature around the external urethral orifice and was connected to conventional pressure transducers (Statham P23 ID/P23 XL). […] The bladder was then filled via the recording catheter by incremental volumes of warm (37° C.) saline until reflex bladder-voiding contractions occurred (usually 0.81.5 ml). For intravenous injection of bioactive compounds, PE 50 polyethylene tubing filled with physiological saline was inserted into the jugular vein.
From the cystometrogram, the number of contractions recorded 15 minutes before (basal values) and after treatment, as well as the mean amplitude of these contractions (mean height of the peaks in mmHg), was evaluated.
Since most compounds produced an effect that was relatively rapid in onset and led to a complete cessation of bladder contractions, bioactivity was conveniently estimated by measuring the duration of bladder quiescence (i.e., the length of the time during which no contractions occurred). The number of tested animals showing a reduction in the number of contractions higher than 30% of that observed in the basal period was recorded too.
The extrapolated doses which induced a reduction in the number of contractions greater than 30% in 50% of the treated rats (ED50) were evaluated by the method of Bliss (Bliss C. I., Quart J. Pharm. Pharmacol. 11, 192–216, 1938).

Row | Compound | Ki [1] [nM] | Functional effect ([35S]GTPγS binding) [2] | further results
1 | O[C@@H](C1CCCCC1)[C@H](CCN1CCN(c2ccccc2OCC(F)(F)F)CC1)c1ccccc1F (racemic) [Ex. 3, 1-[(RS,SR)-4-cyclohexyl-4-hydroxy-3-(2-fluorophenyl)-butyl]-4-[2-(2,2,2-trifluoroethoxy)-phenyl]-piperazine] | 0.29 | Neutral antagonist | 
2 | COc1ccccc1N1CCN(CC[C@@H](c2ccccc2F)[C@H](O)C2CCCCC2)CC1 [Ex. 1X, 1-[(3S,4R)-4-cyclohexyl-4-hydroxy-3-(2-fluorophenyl)-butyl]-4-(2-methoxyphenyl)-piperazine] | 0.5 | Partial agonist | 
3 | COc1ccccc1N1CCN(CCC(c2ccccc2F)C(O)C2CCCCC2)CC1 (stereo not shown) [Ex. 2, 1-[(RR-SS)-4-cyclohexyl-4-hydroxy-3-(2-fluorophenyl)-butyl]-4-(2-methoxyphenyl)-piperazine] | 0.29 | Neutral antagonist | potency at the 5-HT1A receptor compared with Ex. 5 ([1]; statistical signficance p<0.01): more potent than Ex. 5
4 | COc1ccccc1N1CCN(CC[C@@H](c2ccccc2F)[C@@H](O)C2CCCCC2)CC1 [Ex. 2Y, 1-[(3S,4S)-4-cyclohexyl-4-hydroxy-3-(2-fluorophenyl)-butyl]-4-(2-methoxyphenyl)-piperazine] | 0.98 | Partial agonist | 
5 | OC(C1CCCCC1)C(CCN1CCN(c2ccccc2OCC(F)(F)F)CC1)c1ccccc1F (stereo not drawn) [Ex. 4, 1-[(RR,SS)-4-cyclohexyl-4-hydroxy-3-(2-fluorophenyl)-butyl]-4-[2-(2,2,2-trifluoroethoxy)-phenyl]-piperazine] | 0.68 | Neutral antagonist | 
6 | Cc1c(-c2ccccc2)oc2c(C(=O)OCCN3CCCCC3)cccc2c1=O [Flavoxate] |  |  | ED10 min (extrapolated dose inducing 10 minutes of disappearance of the contractions) [3]: >10 mg/kg
7 | CCN(CC)CC#CCOC(=O)C(O)(c1ccccc1)C1CCCCC1 (stereo not shown) [Oxybutynin] |  |  | ED50 ([3]; n.a. = not active, no significant reduction of the height of the peaks, read-out: ED50 (amplitude) (extrapolated dose inducing a 30% reduction of amplitude of the contractions in 50% of treated rats)): 0.24 mg/kg; ED50 ([3]; read-out: ED50 (frequency) (extrapolated dose inducing a reduction of the number of contractions > 30% in 50% of treated rats)): > 10 mg/kg; blockade of bladder contractions ([3]; at 240 μg/kg): did not cause a blockade of bladder contractions; ED10 min (extrapolated dose inducing 10 minutes of disappearance of the contractions) [3]: 7.77 mg/kg
